{
  "source": "paper PMC4662070",
  "about": "(Nature communications, 2015)",
  "molecular_target": "FABP5 (Homo sapiens, UniProt Q01469)",
  "sequence (Q01469 2-135)": "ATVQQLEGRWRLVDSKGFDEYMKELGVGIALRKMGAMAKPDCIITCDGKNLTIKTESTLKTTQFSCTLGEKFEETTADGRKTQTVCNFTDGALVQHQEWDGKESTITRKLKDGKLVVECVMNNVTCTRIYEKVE",
  "test": "fluorescence titration",
  "assay_type": "binding",
  "data": [
    {"molecule": "O=S(=O)(O)c1cccc2cccc(Nc3ccccc3)c12", "note": "[ANS, 1-anilinonaphthalene-8-sulfonic acid]", "values": [
      {"measurement": "Kd", "value": "0.07 ± 0.0064", "unit": "µM"}
    ]}
  ]
}
